Results reported in paper PMC10619691, “Effect of cyclic substituents on the anti-cancer activity and DNA interaction of ruthenium(II) bis-phenanthroline dipyridoquinoline” (Frontiers in Molecular Biosciences, 2023).

How the values were obtained:
HS DNA = assay: DNA binding by fluorescence (emission) titration; parameters: species or system herring; conditions: for binding constant / binding site size: emission titrations; for n′ (binding site size): titrating concentrated HS DNA into 5 μM solutions of ruthenium complex, direct fitting
Excerpt: VNK-754 is a structural analog of [Ru(phen)2dpq]^2+, a complex that intercalates the dpq (dpq = dipyrido[3,2-f:2′,3′-h]quinoxaline) ligand from the minor groove ([Greguric et al., 1997]). The dpq ligand presents a sufficiently large planar surface to allow classical intercalation, and it might be expected that extending the surface with substituents would enhance such binding. However, while this is observed with the addition of aromatic rings, as in the case of [Ru(phen)2dppz]^2+, this may not be true for the addition of a saturated ring that distorts the planarity of the extended ring system (Figure 6). Studies were thus undertaken to establish the binding modes of POW-12A and VNK-572. All complexes bound strongly to DNA, and binding constants and binding site sizes were determined from emission titrations to be 1.91 × 10^6 M^–1 and 0.38 Ru/base for POW-12A, and 1.46 × 10^6 M^–1 and 0.24 Ru/base for VNK-572 (Table 3). […] The smallest binding site size a pure intercalator can have is four bases. The binding site size of POW-12A is smaller than four bases; this is not consistent with binding via pure intercalation.
PBS buffer was prepared with NaCl (137 mM), KCl (2.70 mM), Na2HPO4 (10.1 mM), and KH2PO4 (1.77 mM) in nanopure water. Using HCl, the pH was adjusted to 7.40. PBS buffer was used for all photophysical experiments. For linear dichroism experiments, a PBS buffer without potassium was used. Solutions of open-circle and supercoiled φX174 DNA were obtained from New England Biolabs. Sodium salts of high-molecular-weight herring sperm (HS-DNA) and calf thymus (CT-DNA) from Sigma were dissolved in PBS buffer, and concentrations were determined spectrophotometrically using the extinction coefficient ε260 nm = 6600 M^−1 cm^−1 for nucleobase concentration. The alternating polynucleotide polydeoxyadenylic-thymidylic acid ([poly(dA-dT)]2) and polydeoxyguanylic-cytidylic acid ([poly(dG-dC)]2) from NUNABIO ([Whitfield et al., 2015]) were dissolved in PBS buffer, and their concentrations were determined using the extinction coefficients ε262 nm = 6700 M^−1 cm^−1 and ε254 nm = 8400 M^−1 cm^−1, respectively. Direct fitting to raw data from fluorescence titration experiments (titrating concentrated HS DNA into 5 μM solutions of ruthenium complex) was used to give the binding constant (KB) and binding site size (n′). The following equation is derived from the Scatchard equation: ∝^2∙KB/PD−KB/PD+1/PDDt+KB∙n^′+KB∙n^′ = 0, where Db/Dt=I−I0/I∞−I0 , PD is the phosphate: dye ratio, KB is the binding constant (M^−1), and n′ is the binding site size (bases per compound). The equation is in the form of a quadratic equation, where a = KB[Dt]/PD, b = −(KB/PD+1/PD[Dt ] +KB∙n′), and c = KBn′. The positive solution to this quadratic equation gives values for α, from which theoretical intensities at each PD are calculated. The least squares regression method was used, minimizing the squared residuals of the theoretical and experimental intensities and floating the values of KB, I0, I∞, and n′.

CT-DNA = assay: viscometry of DNA with bound complex; assay type: binding, calf; conditions: 25°C
Excerpt: This reduction reflects increased flexibility of the DNA due to electrostatic and steric factors, which is consistent with the LD results for POW-12A but can also occur if the DNA becomes kinked or bent upon binding a small molecule.
An uncalibrated Cannon-Manning extra-low charge semi-micro viscometer (size 75) was used to measure the relative intrinsic viscosity of dilute DNA solutions, according to the manufacturer’s instructions (Cannon Instrument Company) and as described previously ([MoradpourHafshejani et al., 2013]). The viscometer was immersed in a water bath thermostated at 25°C. The DNA concentration and viscometer volume ([…]) were kept constant for a series of added dye concentrations. The flow time for water was ∼177 s, and that for DNA solutions was >245 s. Measurements were carried out in triplicate and provided standard deviations of <±1 s. The flow times are related to the relative intrinsic viscosity according to Eq. 1, where [η] is the intrinsic viscosity in the presence of dye and [η]0 is the intrinsic viscosity of free DNA. t0, td, and tx represent the flow times for buffer only, naked DNA, and dye-bound DNA, respectively. […] If the persistence length is reduced or the DNA is bent (dynamically or statically), the slope will be lowered. tx−tt/td−tt3=η/η03=L/L0=1+αr. (1)

MDA-MB-231 (TNBC) = assay: sulphorhodamine B (SRB) cytotoxicity assay; assay type: cell-based, human; conditions: 72 h incubation, mean ± SEM
Experimental: (§1) The cytotoxicity profile of the ruthenium complexes […]-572, and POW-12A was assessed in various cancer cell lines, namely, human cervical cancer HeLa, prostate cancer cell line DU145, breast cancer cell line MDAMB231MB231, ovarian cancer cell line A2780, and cisplatin-resistant ovarian cancer cell line A2780-CP70, using the preferred screen of the National Cancer Institute, the sulphorhodamine (SRB) dye assay, and the trypan blue cell viability assay ([Skehan et al., 1990]; [Houghton et al., 2007]; [Strober, 2001]). To determine their selective toxicity profile, these complexes were also tested in a normal prostate cell line (PTN1A). From the similarity in chemical structures of the compounds, we deduced that a structure-activity relationship study will help elucidate key properties involved in the cytotoxic activity of this class of metal complexes. The sulphorhodamine B (SRB) assay was used to evaluate the cytotoxicity of each cancer line after treating them with the metal complexes in line with the previously established protocol ([Skehan et al., 1990]). A cell density of 3 × 10^4 cells/mL was treated with various concentrations (3, 10, 30, 50, and 100 μM) of each ruthenium complex by 1:200 dilutions of stock solutions (in DMSO) in culture media, using DMSO as a control. Then, 100 μL of the cell-drug suspension was added to the respective wells of a 96-well plate and incubated at 37°C for 72 h in a CO2-containing incubator. Following this, the cells were fixed using 25 ul of Carnoy's solution and left in the fridge (4°C) for 1 h. The plates were then rinsed with running water and tapped on paper to remove dead cells. The cells were then stained with 100 μL of sulphorhodamine B dye and left for 30 min, after which the dye was washed off using 1% acetic acid, and the plate was left to dry in the oven (60°C). The stained cells were then treated with 100 μL of Tris base (10 mM, pH 10) to solubilize the dye stain. Finally, the plates were analyzed using an Omega plate reader. Each assay was conducted in triplicate. % Cell response=Average of treated cells / Average of control cells x 100.

HeLa cervical cancer = assay: sulphorhodamine B (SRB) cytotoxicity assay; assay type: cell-based, human; conditions: 72 h incubation, mean ± SEM
Experimental: as §1

DU145 prostate cancer = assay: sulphorhodamine B (SRB) cytotoxicity assay; assay type: cell-based, human; conditions: 72 h incubation, mean ± SEM
Experimental: as §1

[1] = tested on: A280-CP70 cisplatin-resistant ovarian cancer; assay: sulphorhodamine B (SRB) cytotoxicity assay; assay type: cell-based, human; conditions: SRB assay, 72 h incubation; mean ± SEM
Experimental: as §1

A2780 ovarian cancer = assay: sulphorhodamine B (SRB) cytotoxicity assay; assay type: cell-based, human; conditions: for IC50: SRB assay, 72 h incubation, mean ± SEM
Experimental: as §1

binding constant (HS DNA)	binding site size (HS DNA) [Ru/base]	n′ (binding site size) (HS DNA) [bases per compound]	SMILES	effect on DNA viscosity / length (CT-DNA)	IC50 (MDA-MB-231 (TNBC)) [µM]	IC50 (HeLa cervical cancer) [µM]	IC50 (DU145 prostate cancer) [µM]	IC50 [1] [µM]	IC50 (A2780 ovarian cancer) [µM]	fold difference between the anti-cancer activities of VNK-754 and VNK-572 (A2780 ovarian cancer; more susceptible cancer cell lines (A2780 and DU145))
1.91 × 10^6 M^–1	0.38	2.63	F[P-](F)(F)(F)(F)F.F[P-](F)(F)(F)(F)F.[Ru+2].c1cnc2c(c1)c1ncc3c(c1c1cccnc12)CCC3.c1cnc2c(c1)ccc1cccnc12.c1cnc2c(c1)ccc1cccnc12 [POW-12A]	reduces the viscosity of DNA	> 100	63 ± 6.35	35 ± 6.93	35 ± 3.47	12 ± 1.73	
1.46 × 10^6 M^–1	0.24	4.16	F[P-](F)(F)(F)(F)F.F[P-](F)(F)(F)(F)F.[Ru+2].c1cnc2c(c1)c1ncc3c(c1c1cccnc12)CCCC3.c1cnc2c(c1)ccc1cccnc12.c1cnc2c(c1)ccc1cccnc12 [VNK-572]	elongates DNA	> 100	52 ± 6.35	19 ± 2.31	15 ± 2.89	10 ± 4.04	seven-fold
